Source: patent US4610983A, “N-acyl acidic amino acid diamide derivative, a salt thereof, and an anti-ulcer agent containing the same” (Toyama Chemical Co., Ltd., priority 1984, dated 1986)

Assays:
Wistar strain rats [1] = experiment: Anti-ulcer activity, Indomethacin-induced ulcers, oral (ED50); type: in vivo, Wistar strain rats (male); conditions: Rattus norvegicus, 1 h before Indomethacin 25 mg/kg p.o., ulcer lengths after 5 h, dose giving 50% of control
From the text: On the other hand, Indomethacin alone was orally administered to a control group at the same dose.

[2] = Acute toxicity, intraperitoneal; conditions: mouse, in vivo, ip
Experimental: Each of the compounds of the Test Compound Nos. 2, 3, 4, 5, 6, 17, 23, 30 and 31 was intraperitoneally administered to ddY strain mice (.male., body wt. 23±2 g, 10 mice per group), and the LD50 values were measured to find that all of them were 600 mg/kg or more.

Wistar strain rats [3] = experiment: Anti-ulcer activity, Indomethacin-induced ulcers, intraperitoneal (inhibition percentage); type: in vivo, Wistar strain rats (male); conditions: 50 mg/kg intraperitoneal, 1 h before Indomethacin 25 mg/kg p.o., ulcer lengths after 5 h; for inhibition in vivo at 50 mg/kg: Rattus norvegicus, ip
Experimental: On the other hand, Indomethacin alone was orally administered to a control group at the same dose. After 5 hours, the stomach of each rat was removed, and then the sum total of the lengths of the ulcers was measured and compared with that measured for the control group, whereby the inhibition percentage was calculated.

Compound	LD50 ([2]; intraperitoneal, ddY male mice)	inhibition in vivo at 50 mg/kg (Wistar strain rats [3])	further results
CCCN(CCC)C(=O)C(CCC(=O)NC)NC(=O)/C=C/c1ccco1 (racemic) [Test Compound 1, DL-2-[β-(2-furyl)acrylamido]-N^5-methyl-N^1,N^1-di(n-propyl)pentane-1,5-diamide]			ED50 (Wistar strain rats [1]): 6.6 mg/kg
CCCN(CCC)C(=O)C(CCC(=O)N(C)C)NC(=O)/C=C/c1ccco1 (racemic) [Test Compound 2, DL-2-[β-(2-furyl)acrylamido]-N^5,N^5-dimethyl-N^1,N^1-di(n-propyl)-pentane-1,5-diamide]	≥ 600 mg/kg		ED50 (Wistar strain rats [1]): 9 mg/kg
CN(C)C(=O)CCC(NC(=O)/C=C/c1ccco1)C(=O)N(C)C (racemic) [Test Compound 3, DL-2-[β-(2-furyl)acrylamido]-N^1,N^1,N^5,N^5-tetramethyl-pentane-1,5-diamide]	≥ 600 mg/kg		ED50 (Wistar strain rats [1]): 10.8 mg/kg
CN(C)C(=O)CCC(NC(=O)/C=C/c1cc2ccccc2o1)C(=O)N(C)C (racemic) [Test Compound 4]	≥ 600 mg/kg		
CCCN(CCC)C(=O)C(CCC(=O)N(C)C)NC(=O)/C=C/c1cc2ccccc2o1 (racemic) [Test Compound 5, DL-2-[β-(2-benzofuryl)acrylamido]-N^5,N^5-dimethyl-N^1,N^1-di(n-propyl)-pentane-1,5-diamide]			LD50 [2]: ≥ 600 mg/kg
CN(C)C(=O)CCC(NC(=O)/C=C/c1cc2ccccc2o1)C(=O)N1CCCCC1 (racemic) [Test Compound 6]	≥ 600 mg/kg		
CCCN(CCC)C(=O)C(CCC(=O)O)NC(=O)c1ccccc1 (stereo not shown) [Proglumide, reference compound]		0%	ED50 (Wistar strain rats [1]): 800 mg/kg
CCCN(CCC)C(=O)[C@H](CCC(=O)N(C)C)NC(=O)C1CCC(CN)CC1 (stereo partly shown) [compound 9]		59%	
CCCN(CCC)C(=O)[C@H](CCC(=O)N(C)C)NC(=O)CN1CCN(C)CC1 [compound 10]		55%	
CCCN(CCC)C(=O)[C@H](CCC(=O)N(C)C)NC(=O)CCN1CCN(C)CC1 [compound 11]		41%	
CCCN(CCC)C(=O)[C@H](CCC(=O)N(C)C)NC(=O)CCCN1CCN(C)CC1 [compound 12]		47%	
CCCN(CCC)C(=O)[C@H](CCC(=O)N(C)C)NC(=O)CCCN1CCN(CC)CC1 [compound 13]		55%	
CCCN(CCC)C(=O)[C@H](CCC(=O)N(C)C)NC(=O)CCCN1CCN(c2ccccc2)CC1 [compound 14]		52%	
CCCN(CCC)C(=O)[C@H](CCC(=O)N(C)C)NC(=O)CCCN1CCC(NC(=O)OCc2ccccc2)CC1 [compound 15]		51%	
CCCN(CCC)C(=O)[C@H](CCC(=O)N(C)C)NC(=O)/C=C/C(=O)c1ccc(OC)c(OC)c1 [compound 16]		59%	
CCCCNC(=O)CCC(NC(=O)/C=C/c1ccco1)C(=O)NCCCC (stereo not shown) [compound 17]	≥ 600 mg/kg	32.1%	
CC(C)CNC(=O)CCC(NC(=O)/C=C/c1ccco1)C(=O)NCC(C)C (stereo not shown) [compound 18]		37.9%	
CC(=O)OCCCNC(=O)CCC(NC(=O)/C=C/c1ccco1)C(=O)NCCCOC(C)=O (stereo not shown) [compound 19]		53%	
CCCNC(=O)C(CCC(=O)NCCCOC(C)=O)NC(=O)/C=C/c1ccco1 (stereo not shown) [compound 20]		53.5%	
CCCNC(=O)C(CCC(N)=O)NC(=O)/C=C/c1ccco1 (stereo not shown) [compound 21]		70.9%	
O=C(/C=C/c1ccco1)NC(CCC(=O)NCCCl)C(=O)NCCCl (stereo not shown) [compound 22]		56%	
CC(C)NC(=O)CCC(NC(=O)/C=C/c1ccco1)C(=O)NC(C)C (stereo not shown) [compound 23]	≥ 600 mg/kg	52%	
CCCN(CCC)C(=O)CCC(NC(=O)/C=C/c1ccco1)C(=O)N(CCC)CCC (stereo not shown) [compound 30]	≥ 600 mg/kg		
CCCCN(CCCC)C(=O)CCC(NC(=O)/C=C/c1ccco1)C(=O)N(CCCC)CCCC (stereo not shown) [compound 31]	≥ 600 mg/kg		
DL-N^1,N^5-bis(3-acetoxypropyl)-2-[β-(2-furyl)acrylamido]pentane-1,5-diamide [Test Compound 19]			Inhibition percentage (Wistar strain rats [3]): 40%
DL-N^5 -(3-acetoxypropyl)-2-[β-(2-furyl)acrylamido]-N^1 -n-propylpentane-1,5-diamide [Test Compound 20]			Inhibition percentage (Wistar strain rats [3]): 52%
